Measured values taken from patent US11712438B2, “Phenyl derivatives as PGE2 receptor modulators” (IDORSIA PHARMACEUTICALS LTD, priority 2017, dated 2023).

Legend:
Experiment in all cases: cell-based
PTGER2 (EP2) = PTGER2 (EP2) (Homo sapiens, UniProt P43116)
Description: The assay is using the PathHunter™ HEK 293 PTGER2 and PTGER4 b-arrestin cell lines from DiscoverX. The system is based on the Enzyme Fragment Complementation Technology. Two complementing fragments of the b-galactosidase enzyme are expressed within stably transfected cells. The larger portion of b-gal, termed EA for Enzyme Acceptor, is fused to the C-terminus of b-arrestin 2. The smaller fragment, termed ProLink™ tag, is fused to PTGER2 (EP2) or PTRGER4 (EP4) at the C-terminus. Upon activation, b-arrestin is recruited which forces the interaction of ProLink and EA, allowing complementation of the two fragments of b-gal and the formation of a functional enzyme which is capable of hydrolysing the substrate and generating a chemiluminescent signal.
The HEK 293 PTGER2 b-arrestin cells (DiscoverX 93-021-4C1) are detached from culture dishes with a cell dissociation buffer (Invitrogen, 13151-014), and collected in growing medium (GM: DMEM+Glutamax-I (Invitrogen 32430)/10% FCS, 1% Penicilin/streptomycin). 5000 cells per well of a 384 well plate (white with white bottom Greiner 781080) are seeded in 20 ul per well of GM. Plate is incubated at 37° C., 5% CO2 for 24 hours.
Stock solutions of test compounds are made at a concentration of 10 mM in DMSO, and serially diluted in DMSO to concentrations required for inhibition dose response curves (tested concentration range 10 μM-2 nM or 1 μM-0.2 nM).
PGE2 (Cayman 14010, stock solution: 10 mM in DMSO) is used as agonist at 5 μM final concentration, corresponding to EC80.
Five microliters of diluted compounds are transferred into the assay plate. Plate is pre-incubated 15 minutes at 37° C. Then five microliters of PGE2 (final conc. 5 μM) are transferred into the assay plate. Plate is incubated 120 minutes at 37° C.
Twelve μl of reagent are transferred to the assay plate and incubate for 1 hour at room temperature in the dark. Luminescence counts are read on a BMG Fluostar Optima reader according to manufacturer's instructions.
For each compound concentration calculate of the percentage of activity compared to DMSO control value as average±STDEV. (each concentration is measured in duplicate)
(§1) When compounds were measured multiple times, mean values are given.

PTRGER4 (EP4) = PTRGER4 (EP4) (Homo sapiens, UniProt P35408);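 also: assay plate preincubated 15 min at 37 °C, after which PGE2 was added at 20 nM final and incubation continued 120 min at 37 °C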
EP2 = EP2 (Homo sapiens, UniProt P43116);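 also: SF295 glioblastoma cells with endogenous EP2 only, PGE2-stimulated cAMP accumulation read by HTRF competitive immunoassay, 45 min pre-incubation then 30 min at room temperature, IBMX in buffer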
EP2, sequence (P43116 whole entry): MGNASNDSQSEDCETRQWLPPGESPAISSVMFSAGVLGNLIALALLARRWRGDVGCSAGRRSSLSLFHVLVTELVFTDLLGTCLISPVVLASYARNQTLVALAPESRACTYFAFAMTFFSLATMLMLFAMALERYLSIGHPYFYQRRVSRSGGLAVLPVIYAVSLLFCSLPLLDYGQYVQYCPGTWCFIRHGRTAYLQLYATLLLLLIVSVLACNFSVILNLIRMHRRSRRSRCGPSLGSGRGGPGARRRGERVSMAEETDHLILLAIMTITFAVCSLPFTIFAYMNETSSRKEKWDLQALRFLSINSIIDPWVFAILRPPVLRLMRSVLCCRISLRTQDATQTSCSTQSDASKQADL

EP4 = EP4 (Homo sapiens, UniProt P35408);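 also: inhibition of PGE2-evoked (6 nM) cAMP accumulation in BT549 breast cancer cells endogenously expressing EP4, cAMP read by HTRF competitive immunoassay after 30 min at room temperature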
EP4, sequence (P35408 whole entry): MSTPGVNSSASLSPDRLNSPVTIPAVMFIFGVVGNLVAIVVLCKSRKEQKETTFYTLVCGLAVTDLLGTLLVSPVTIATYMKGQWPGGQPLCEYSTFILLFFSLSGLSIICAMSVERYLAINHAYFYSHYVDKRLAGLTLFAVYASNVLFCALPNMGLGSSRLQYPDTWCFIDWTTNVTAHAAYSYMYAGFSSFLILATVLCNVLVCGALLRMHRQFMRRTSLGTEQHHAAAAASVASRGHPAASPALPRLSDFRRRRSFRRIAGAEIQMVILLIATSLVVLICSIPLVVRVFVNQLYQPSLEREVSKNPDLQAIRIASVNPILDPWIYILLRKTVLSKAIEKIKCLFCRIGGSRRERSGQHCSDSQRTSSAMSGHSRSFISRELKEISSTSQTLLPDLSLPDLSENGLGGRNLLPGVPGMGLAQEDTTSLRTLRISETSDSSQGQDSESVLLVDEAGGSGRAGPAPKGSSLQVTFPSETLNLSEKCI
Description: Human tumor cell lines expressing endogenously either EP4 or EP2 are used and cAMP accumulation in cells upon PGE2 stimulation is monitored.
As a detection method for cAMP the HTRF (homogeneous time resolved fluorescence) Cisbio kit (HTRF cAMP dynamic 2 kit 20′000 tests Cisbio Cat. #62AM4PEC) was used, which is based on a competitive immunoassay using a Cryptate-labeled anti-cAMP antibody and d2-labeled cAMP. Native cAMP produced by cells or unlabeled cAMP (for the standard curve) compete with exogenously added d2-labeled cAMP (acceptor) for binding to monoclonal anti-cAMP-Eu3+ Cryptate (donor). A FRET signal (Fluorescence Resonance Energy Transfer) is obtained only if the labeled anti-cAMP antibody binds the d2 labelled cAMP, thus the specific signal (i.e. energy transfer) is inversely proportional to the concentration of cAMP in the standard or sample.
The BT549 cells (NCI/No. 0507282) are detached from culture dishes with a cell dissociation buffer (Invitrogen, 13151-014), and collected in growing medium (GM: RPM11640 (Invitrogen 21875)/10% FCS, 1% Penicilin/streptomycin). Cells are counted washed and resuspended in assay buffer (AB; HBSS, 20 mM HEPES, 0.2% BSA; 2 mM IBMX). 4′000 cells in 5 μl of AB are seeded per well of a small volume 384 well plate (black with flat bottom, Greiner 784076).
Stock solutions of test compounds are made at a concentration of 10 mM in DMSO, and serially diluted in DMSO to concentrations required for inhibition dose response curves (tested concentration range 30 μM-0.4 nM; 30 μM-0.015 nM or 1 μM-0.01 nM).
PGE2 (Cayman 14010, stock solution: 6 μM in DMSO) is used as agonist at 6 nM final concentration, corresponding to EC80.
Two point five microliters of diluted compounds are transferred into the assay plate. Plate is pre-incubated 45 minutes at room temperature. Subsequently, 2.5 microliters of PGE2 (final conc. 6 nM) are transferred into the assay plate. Plate is incubated 30 minutes at room temperature.
For each compound concentration the percentage of cAMP compared to DMSO control value as average±STDEV (each concentration is measured in duplicate) is calculated.
as §1

PTRGER4 (EP4), sequence (P35408 whole entry): as above
PTGER2 (EP2), sequence (P43116 whole entry): as the sequence (P43116 whole entry) above

Compound | IC50 (PTGER2 (EP2)) [nM] | IC50 (PTRGER4 (EP4)) [nM] | IC50 (EP2) [nM] | IC50 (EP4) [nM]
CCOc1cc(-c2cc(NCCc3c(F)cc(F)cc3F)ncn2)sc1-c1noc(=O)[nH]1 [Example 101, 3-(3-Ethoxy-5-{6-[2-(2,4,6-trifluoro-phenyl)-ethylamino]-pyrimidin-4-yl}-thiophen-2-yl)-[1,2,4]oxadiazol-5(4H)-one] | 44 | 103 | 62 | 82
CCOc1cc(-c2cc(NCCc3c(F)cccc3F)ncn2)sc1-c1noc(=O)[nH]1 [Example 103, 3-(5-{6-[2-(2,6-Difluoro-phenyl)-ethylamino]-pyrimidin-4-yl}-3-ethoxy-thiophen-2-yl)-[1,2,4]oxadiazol-5(4H)-one] | 62 | 36 | 39 | 39
CCOc1cc(-c2cc(NCCc3ccc(Br)c(Cl)c3)ncn2)sc1-c1noc(=O)[nH]1 [Example 106, 3-(5-{6-[2-(4-Bromo-3-chloro-phenyl)-ethylamino]-pyrimidin-4-yl}-3-ethoxy-thiophen-2-yl)-[1,2,4]oxadiazol-5(4H)-one] | 35 | 1 | 49 | 10
CCOc1cc(-c2cc(NCCc3ccc(Br)c(C)c3)ncn2)sc1-c1noc(=O)[nH]1 [Example 113, 3-(5-{6-[2-(4-Bromo-3-methyl-phenyl)-ethylamino]-pyrimidin-4-yl}-3-ethoxy-thiophen-2-yl)-[1,2,4]oxadiazol-5(4H)-one] | 47 | 3 | 113 | 29

Now from value to compound:

IC50 (PTGER2 (EP2)) [nM] | IC50 (PTRGER4 (EP4)) [nM] | IC50 (EP2) [nM] | IC50 (EP4) [nM] | Compound
34 | 91 | 17 | 122 | CCOc1ccccc1CCNc1cc(-c2cc(OCC)c(-c3noc(=O)[nH]3)s2)ncn1 [Example 102, 3-(3-Ethoxy-5-{6-[2-(2-ethoxy-phenyl)-ethylamino]-pyrimidin-4-yl}-thiophen-2-yl)-[1,2,4]oxadiazol-5(4H)-one]
11 | 9 | 40 | 25 | CCOc1cc(-c2cc(NCCc3c(F)cc(Cl)cc3F)ncn2)sc1-c1noc(=O)[nH]1 [Example 105, 3-(5-{6-[2-(4-Chloro-2,6-difluoro-phenyl)-ethylamino]-pyrimidin-4-yl}-3-ethoxy-thiophen-2yl)-[1,2,4]oxadiazol-5(4H)-one]
10 | 2 | 11 | 7 | CCOc1cc(-c2cc(NCCc3cc(F)c(Br)cc3F)ncn2)sc1-c1noc(=O)[nH]1 [Example 107, 3-(5-{6-[2-(4-Bromo-2,5-difluoro-phenyl)-ethylamino]-pyrimidin-4-yl}-3-ethoxy-thiophen-2yl)-[1,2,4]oxadiazol-5(4H)-one]
28 | 5 | 113 | 15 | CCOc1cc(-c2cc(NCCc3ccc(Br)c(F)c3)ncn2)sc1-c1noc(=O)[nH]1 [Example 108, 3-(5-{6-[2-(4-Bromo-3-fluoro-phenyl)-ethylamino]-pyrimidin-4-yl}-3-ethoxy-thiophen-2-yl)-[1,2,4]oxadiazol-5(4H)-one]
6 | 2 | 9 | 3 | CCOc1cc(-c2cc(NCCc3c(F)cc(Br)cc3F)ncn2)sc1-c1noc(=O)[nH]1 [Example 110, 3-(5-{6-[2-(4-Bromo-2,6-difluoro-phenyl)-ethylamino]-pyrimidin-4-yl}-3-ethoxy-thiophen-2yl)-[1,2,4]oxadiazol-5(4H)-one]
31 | 6 | 137 | 26 | CCOc1cc(-c2cc(NCCc3cc(F)c(Br)cc3C)ncn2)sc1-c1noc(=O)[nH]1 [Example 111, 3-(5-{6-[2-(4-Bromo-5-fluoro-2-methyl-phenyl)-ethylamino]-pyrimidin-4-yl}-3-ethoxy-thiophen-2yl)-[1,2,4]oxadiazol-5(4H)-one]
